# Results taken from patent US5747239A, “Synthetic peptides specific for the detection of antibodies to HCV, diagnosis of HCV infection and preventions thereof as vaccines” (United Biomedical, Inc., priority 1994, dated 1998).
# Key:
# Format in all cases: binding, human
# [1] = test system: antibodies to HCV; assay: Envelope/NS-1 peptide ELISA, anti-HCV positive plasmapheresis donors with elevated ALT (Panel III); conditions: for % Relative Immunoreactivity: envelope/NS-1 peptides, Panel III (17 samples), peptide 254B as a standard
# Procedure: To select a panel of samples with reactivity to peptides from the envelope/NS-1 region, 97 such samples from anti-HCV positive plasmapheresis donors with elevated ALT levels were tested with peptide 254B. […] 17 samples with the greatest reactivity with peptide 254B were chosen to form a third panel (Panel III) to screen for the immunoreactivity of the other 20 peptides from the envelope/NS-1 region. The individual absorbance values of each of the 17 samples on the four peptides with the greatest reactivity, i.e. 255C (pep7), 254B (pep8), 247B (pep9), and 246D (pep10), are listed in Table 8b.
# [2] = test system: antibodies to HCV; assay: Envelope/NS-1 peptide ELISA, samples nonreactive on HCV core (VIIIE) and NS-4 (IIH) peptides
# Procedure: In addition to screening on Panel III samples, the envelope/NS-1 peptides were also tested against samples from plasmapheresis donors who had elevated ALT levels but were non-reactive on the HCV from the core (e.g. peptide VIIIE) and NS-4 (e.g. peptide IIH) regions screening EIA. Six of these samples, which may represent early seroconversion samples, were reactive on one or more envelope/NS-1 peptide (Table 8d). The absorbance values on these HCV EIA nonreactive samples are lower than the values found for Panel III samples. In the case of Pep7 and Pep10, their shorter segments, 225B and 246C, respectively, gave greater immunoreactivity, in contrast to the performance on Panel III.
# [3] = test system: antibodies to HCV; assay: Peptide ELISA for relative immunoreactivity, 8 member HCV serum panel (Panel I); conditions: NS-5 peptides (Table 12); Panel I; pep11 as a standard
# Procedure: As an example to illustrate how relative (%) immunoreactivity for HCV synthetic peptides is measured, wells of 96-well plates are coated for 1 hour at 37° C., with each of the following peptides: IIH, V, VIIIE and pep11 at 5 ug/mL at 100 uL per well in 10 mM NaHCO3 buffer, pH 9.5. The peptide coated wells were then incubated with 250 uL of 3% by weight of gelatin in PBS in 37° C. for 1 hour to block non-specificprotein binding sites, followed by three washes with PBS containing 0.05% by volume of TWEEN 20 and then dried. The test specimens containing a panel of eight well-characterized HCV antibody positive patient sera were diluted with PBS containing 20% by volume normal goat serum, 1% by weight gelatin and 0.05% by volume TWEEN 20 at dilutions of 1:20 volume to volume, respectively. 200 uL of the diluted specimens were added to each of the wells and allowed to react for 15 minutes at 37° C.
# The wells were then washed six times with 0.05% by volume TWEEN 20 in PBS in order to remove unbound antibodies. Horseradish peroxidase conjugated goat anti-human IgG was used as a second antibody tracer to bind with the HCV antibody-peptide antigen complex formed in positive wells. 100 uL of peroxidase labeled goat anti-human IgG at a dilution of 1:1800 in 1% by volume normal goat serum, 0.05% by volume TWEEN 20 in PBS was added to each well and incubated at 37° C. for another 15 minutes.
# The wells were washed six times with 0.05% by volume TWEEN 20 PBS to remove unbound antibody and reacted with 100 uL of the substrate mixture containing 0.04% by weight orthophenylenediamine (OPD) and 0.12% by volume hydrogen peroxide in sodium citrate buffer, pH 5.0.
# This substrate mixture was used to detect the peroxidase label by forming a colored product. Reactions were stopped by the addition of 100 uL of 1.0M H2 SO4 and the A492 mm measured. Results of relative immunoreactivity for each of the peptides obtained from this study are shown in Table A using peptide II H as the reference.
# [4] = test system: antibodies to HCV; assay: NS-5 peptide ELISA, group of 5 HCV positive sera
# Procedure: Wells of 96-well plates were coated for 1 hour at 37° C. with each of the three peptides derived from the NS-5 region of HCV (designated as pep4, pep5 and pep6).
# [5] = test system: antibodies to HCV; assay: Peptide ELISA for relative immunoreactivity, 8 member HCV serum panel (Panel I); conditions: NS-3 peptides (Tables 4B-4D), relative to pep3 (279A)
# [6] = test system: antibodies to HCV; assay: EIA of NS-3 peptides before and after pH adjustment
# Procedure: Peptides dissolved at 1 mg/mL in H2 O, pH 4, were titrated to pH 11 by addition of diluted NaOH. After 5 min at pH 11, the pH of the peptide solution was brought down to 7.0 using diluted HCl. Immunoreactivity of the peptides thus treated was compared with reactivity prior to pH adjustment (Table 4E). Two-to three-fold increases in A492 nm were seen. Some previously non-reactive serum samples were able to react with pH adjusted peptides. For instance, serum sample 1, which is non-reactive to 261C, has an absorbance of 1401 mA when tested with the corresponding pH adjusted peptide.
# [7] = sample 1 (first line, number not given)
sequence,measurement,setting,value
CLTVPASAYQVRNSTGLYHVTNDCPNSSIVYEAHDAILHTPGCVPCVREGNVSRC [255C],Absorbance,[1]; Panel III sample 2,0.017
same,Absorbance,[1]; Panel III sample 3,0.235
same,Absorbance,[1]; Panel III sample 4,0.066
same,Absorbance,[1]; Panel III sample 5,0.711
same,Absorbance,[1]; Panel III sample 6,0.106
same,Absorbance,[1]; Panel III sample 7,0.784
same,Absorbance,[1]; Panel III sample 8,0.037
same,Absorbance,[1]; Panel III sample 9,0.019
same,Absorbance,[1]; Panel III sample 10,0.313
same,Absorbance,[1]; Panel III sample 11,0.035
same,Absorbance,[1]; Panel III sample 14,0.047
same,Absorbance,[1]; Panel III sample 15,0.012
same,Absorbance,[1]; Panel III sample 16,0.064
same,Absorbance,[1]; Panel III sample 17,0.077
same,% Relative Immunoreactivity,[1],51.4%
same,Absorbance,[2]; [7],0.098
same,Absorbance,[2]; sample 2,0.346
same,Absorbance,[2]; sample 3,0.300
same,Absorbance,[2]; sample 4,0.021
same,Absorbance,[2]; sample 5,0.231
same,Absorbance,[2]; sample 6,0.017
DAELIEANLLWRQEMGGNITRVESENKVVILDSFDPLVAEEDER [Pep5],% IP,[3],47.6%
same,% Relative Immunoreactivity,"[4]; NS-5 peptides, 5 HCV positive sera, Pep5 = 100",100.0%
same,EIA reading per sample,[4]; Sample No. 1,2.942
same,EIA reading per sample,[4]; Sample No. 2,0.370
same,EIA reading per sample,[4]; Sample No. 3,0.616
same,EIA reading per sample,[4]; Sample No. 4,1.316
same,EIA reading per sample,[4]; Sample No. 5,1.783
INSTALNCNESLNTGWLAGLIYQHKFNSSGCPERLASC [246C],% Relative Immunoreactivity,[1],97.6%
same,Absorbance,[2]; [7],0.240
same,Absorbance,[2]; sample 2,0.015
same,Absorbance,[2]; sample 3,0.023
same,Absorbance,[2]; sample 4,0.046
same,Absorbance,[2]; sample 5,0.009
RTITTGSPITYSTYGKFLADGGCSGGAYDIIICDECHSTDATSILGIGTVLDQAETAG [279E],% Relative Immunoreactivity,[5],2.2%
SVTVPHPNIEEVALSTTGEIPFYGKAIPLEVIKGGRHLIFCHSKKKCDEL [261C],relative immunopotency,"[6]; after pH adjustment, compared with the standard pep3 (279A)",68.5%
same,A492 nm (mA) by EIA,"[6]; serum sample 1, Ctrl (prior to pH adjustment)",6 mA
same,A492 nm (mA) by EIA,"[6]; serum sample 1, pH adj (pH 11 for 5 min, then 7.0)",1401 mA
same,A492 nm (mA) by EIA,"[6]; serum sample 2, Ctrl",5 mA
same,A492 nm (mA) by EIA,"[6]; serum sample 2, pH adj",499 mA
same,A492 nm (mA) by EIA,"[6]; serum sample 3, Ctrl",24 mA
same,A492 nm (mA) by EIA,"[6]; serum sample 3, pH adj",175 mA
same,A492 nm (mA) by EIA,"[6]; serum sample 4, Ctrl",27 mA
same,A492 nm (mA) by EIA,"[6]; serum sample 4, pH adj",351 mA
same,% Relative Immunoreactivity,[5],3.2%
TTGSPITYSTYGKFLADGGCSGGAYDIIICDECHSTDAT [262B],% Relative Immunoreactivity,[5],4.7%
TVLDQAETAGARLVVLATATPPGSVTVPHPNIEEVAL [274A],% Relative Immunoreactivity,[5],2.0%
VRNSTGLYHVTNDCPNSSIVYEAHDAILHTPGCPCVREGNVSRC [255B],% Relative Immunoreactivity,[1],18.7%
same,Absorbance,[2]; sample 4,0.021
same,Absorbance,[2]; sample 6,0.012
WHINSTALNCNESLNTGWLAGLIYQHKFNSSGCPERLASC [246D],Absorbance,[1]; Panel III sample 1,1.085
same,Absorbance,[1]; Panel III sample 2,0.068
same,Absorbance,[1]; Panel III sample 3,0.090
same,Absorbance,[1]; Panel III sample 5,0.077
same,Absorbance,[1]; Panel III sample 9,0.334
same,Absorbance,[1]; Panel III sample 10,1.488
same,Absorbance,[1]; Panel III sample 11,0.045
same,Absorbance,[1]; Panel III sample 12,0.408
same,Absorbance,[1]; Panel III sample 13,0.451
same,Absorbance,[1]; Panel III sample 14,0.037
same,Absorbance,[1]; Panel III sample 16,0.810
same,Absorbance,[1]; Panel III sample 17,0.111
same,% Relative Immunoreactivity,[1],98.6%
same,Absorbance,[2]; [7],0.068
same,Absorbance,[2]; sample 2,0.028
same,Absorbance,[2]; sample 3,0.029
same,Absorbance,[2]; sample 4,0.049
same,Absorbance,[2]; sample 5,0.009
same,Absorbance,[2]; sample 6,0.102
